± gives the expanded uncertainty stated by the source.
Assay: xn = mol fraction of the nth substance listed
Conditions: 101 kPa, Liquid, Linear variable-path acoustic interferometer

C=CC(=O)OC [methyl propenoate] + CCCCCCCCCCO
speed of sound [m/s]
Conditions | 288.15 K | 293.15 K | 298.15 K | 303.15 K | 308.15 K | 313.15 K | 318.15 K
x1 = 0.0762 | 1388.2 ± 2 | 1370.2 ± 2 | 1352.1 ± 2 | 1333.5 ± 2 | 1318.1 ± 1.9 | 1299.5 ± 1.9 | 1284 ± 1.9
x1 = 0.1523 | 1366.7 ± 2 | 1348.2 ± 2 | 1330.6 ± 2 | 1312.1 ± 1.9 | 1295.8 ± 1.9 | 1276.3 ± 1.9 | 1259.4 ± 1.9
x1 = 0.2225 | 1346.9 ± 2 | 1328.3 ± 1.9 | 1310.1 ± 1.9 | 1291.2 ± 1.9 | 1275.1 ± 1.9 | 1255.2 ± 1.9 | 1238.1 ± 1.9
x1 = 0.3073 | 1324.4 ± 1.9 | 1304.9 ± 1.9 | 1286.5 ± 1.9 | 1268.1 ± 1.9 | 1251.5 ± 1.9 | 1231.5 ± 1.9 | 1214.4 ± 1.8
x1 = 0.3848 | 1304.7 ± 1.9 | 1285.2 ± 1.9 | 1267 ± 1.9 | 1248.2 ± 1.9 | 1231.2 ± 1.8 | 1211.3 ± 1.8 | 1194.3 ± 1.8
x1 = 0.4622 | 1286.4 ± 1.9 | 1267 ± 1.9 | 1248.9 ± 1.9 | 1230 ± 1.8 | 1212.8 ± 1.8 | 1193.1 ± 1.8 | 1175.6 ± 1.8
x1 = 0.5356 | 1270.8 ± 1.9 | 1251.3 ± 1.9 | 1233 ± 1.8 | 1214.6 ± 1.8 | 1197 ± 1.8 | 1177.4 ± 1.8 | 1160 ± 1.8
x1 = 0.6092 | 1257.7 ± 1.9 | 1238.3 ± 1.8 | 1219.8 ± 1.8 | 1201.2 ± 1.8 | 1183 ± 1.8 | 1163.6 ± 1.8 | 1145.6 ± 1.8
x1 = 0.6768 | 1247.2 ± 1.8 | 1227.9 ± 1.8 | 1209.4 ± 1.8 | 1190.4 ± 1.8 | 1171.8 ± 1.8 | 1152.1 ± 1.8 | 1133.7 ± 1.7
x1 = 0.7443 | 1238.8 ± 1.8 | 1219.3 ± 1.8 | 1200.6 ± 1.8 | 1181.3 ± 1.8 | 1161.9 ± 1.8 | 1141.8 ± 1.7 | 1123.2 ± 1.7
x1 = 0.8089 | 1233.4 ± 1.8 | 1213.4 ± 1.8 | 1193.9 ± 1.8 | 1174.3 ± 1.8 | 1154.1 ± 1.7 | 1134 ± 1.7 | 1114.4 ± 1.7
x1 = 0.8736 | 1229.8 ± 1.8 | 1209.1 ± 1.8 | 1189.2 ± 1.8 | 1169.1 ± 1.8 | 1147.8 ± 1.7 | 1127.2 ± 1.7 | 1106.9 ± 1.7
x1 = 0.9412 | 1227.4 ± 1.8 | 1206.1 ± 1.8 | 1185.6 ± 1.8 | 1164.6 ± 1.8 | 1142.5 ± 1.7 | 1121.4 ± 1.7 | 1100.4 ± 1.7
x1 = 1 | 1226.6 ± 1.8 | 1204.6 ± 1.8 | 1183.6 ± 1.8 | 1162.2 ± 1.7 | 1139.1 ± 1.7 | 1117.8 ± 1.7 | 1095.7 ± 1.7

C=CC(=O)OC [methyl propenoate] + CCCCCCCCO
speed of sound [m/s]
Conditions | 288.15 K | 293.15 K | 298.15 K | 303.15 K | 308.15 K | 313.15 K | 318.15 K
x1 = 0.077 | 1371.5 ± 2 | 1352.2 ± 2 | 1331.5 ± 2 | 1310.8 ± 1.9 | 1292.2 ± 1.9 | 1274.2 ± 1.9 | 1256.8 ± 1.9
x1 = 0.1554 | 1352.2 ± 2 | 1331.8 ± 2 | 1311.5 ± 1.9 | 1290.9 ± 1.9 | 1271.8 ± 1.9 | 1253.4 ± 1.9 | 1235.1 ± 1.9
x1 = 0.2304 | 1333.7 ± 2 | 1313.6 ± 1.9 | 1293.4 ± 1.9 | 1273.1 ± 1.9 | 1253.6 ± 1.9 | 1234.9 ± 1.9 | 1216.4 ± 1.8
x1 = 0.3053 | 1316.3 ± 1.9 | 1296.3 ± 1.9 | 1276 ± 1.9 | 1255.8 ± 1.9 | 1236 ± 1.9 | 1217.5 ± 1.8 | 1198.9 ± 1.8
x1 = 0.383 | 1299.9 ± 1.9 | 1280 ± 1.9 | 1259.7 ± 1.9 | 1239.6 ± 1.9 | 1219.7 ± 1.8 | 1200.9 ± 1.8 | 1182.4 ± 1.8
x1 = 0.4603 | 1285 ± 1.9 | 1265.1 ± 1.9 | 1244.7 ± 1.9 | 1224.5 ± 1.8 | 1204.5 ± 1.8 | 1185.9 ± 1.8 | 1167.5 ± 1.8
x1 = 0.5321 | 1272.6 ± 1.9 | 1252.5 ± 1.9 | 1232.1 ± 1.8 | 1212.1 ± 1.8 | 1192.1 ± 1.8 | 1173.4 ± 1.8 | 1154.8 ± 1.8
x1 = 0.6038 | 1262.4 ± 1.9 | 1242 ± 1.8 | 1221.6 ± 1.8 | 1201.3 ± 1.8 | 1181.1 ± 1.8 | 1162.1 ± 1.8 | 1143.1 ± 1.7
x1 = 0.6724 | 1253.7 ± 1.9 | 1233.3 ± 1.8 | 1212.9 ± 1.8 | 1192.3 ± 1.8 | 1171.7 ± 1.8 | 1152.5 ± 1.8 | 1132.8 ± 1.7
x1 = 0.741 | 1246.5 ± 1.8 | 1225.8 ± 1.8 | 1205.4 ± 1.8 | 1184.7 ± 1.8 | 1163.6 ± 1.8 | 1143.8 ± 1.7 | 1123.6 ± 1.7
x1 = 0.8052 | 1241.4 ± 1.8 | 1220.1 ± 1.8 | 1199.4 ± 1.8 | 1178.5 ± 1.8 | 1156.7 ± 1.8 | 1136.5 ± 1.7 | 1115.7 ± 1.7
x1 = 0.8698 | 1236.3 ± 1.8 | 1214.7 ± 1.8 | 1193.7 ± 1.8 | 1172.5 ± 1.8 | 1150.2 ± 1.7 | 1129.6 ± 1.7 | 1108.3 ± 1.7
x1 = 0.935 | 1231.8 ± 1.8 | 1209.6 ± 1.8 | 1188.3 ± 1.8 | 1166.8 ± 1.8 | 1144.2 ± 1.7 | 1123.1 ± 1.7 | 1101.5 ± 1.7
x1 = 1 | 1226.6 ± 1.8 | 1204.6 ± 1.8 | 1183.6 ± 1.8 | 1162.2 ± 1.7 | 1139.1 ± 1.7 | 1117.8 ± 1.7 | 1095.7 ± 1.7

C=CC(=O)OC [methyl propenoate] + CCCCCCO
speed of sound [m/s]
Conditions | 288.15 K | 293.15 K | 298.15 K | 303.15 K | 308.15 K | 313.15 K | 318.15 K
x1 = 0.077 | 1325.5 ± 1.9 | 1306.4 ± 1.9 | 1290.5 ± 1.9 | 1272 ± 1.9 | 1256.5 ± 1.9 | 1236.3 ± 1.8 | 1216.5 ± 1.8
x1 = 0.1542 | 1311.1 ± 1.9 | 1291.6 ± 1.9 | 1275.3 ± 1.9 | 1256.1 ± 1.9 | 1240.1 ± 1.8 | 1219.7 ± 1.8 | 1199.7 ± 1.8
x1 = 0.2299 | 1297.1 ± 1.9 | 1277.5 ± 1.9 | 1260.7 ± 1.9 | 1241.8 ± 1.8 | 1225.1 ± 1.8 | 1204.8 ± 1.8 | 1185.1 ± 1.8
x1 = 0.3057 | 1284.1 ± 1.9 | 1264.4 ± 1.9 | 1247.4 ± 1.8 | 1228.5 ± 1.8 | 1211.6 ± 1.8 | 1191.6 ± 1.8 | 1171.8 ± 1.8
x1 = 0.3834 | 1272 ± 1.9 | 1252.3 ± 1.8 | 1235.1 ± 1.8 | 1216.4 ± 1.8 | 1199.1 ± 1.8 | 1179.4 ± 1.8 | 1159.6 ± 1.8
x1 = 0.4612 | 1261.7 ± 1.9 | 1242 ± 1.8 | 1224.5 ± 1.8 | 1205.6 ± 1.8 | 1187.9 ± 1.8 | 1168.1 ± 1.8 | 1148.2 ± 1.7
x1 = 0.534 | 1253.5 ± 1.8 | 1233.6 ± 1.8 | 1215.9 ± 1.8 | 1196.7 ± 1.8 | 1178.5 ± 1.8 | 1158.6 ± 1.8 | 1138.4 ± 1.7
x1 = 0.6068 | 1246.6 ± 1.8 | 1226.4 ± 1.8 | 1208.2 ± 1.8 | 1188.7 ± 1.8 | 1169.8 ± 1.8 | 1149.7 ± 1.7 | 1129.3 ± 1.7
x1 = 0.672 | 1241.3 ± 1.8 | 1220.8 ± 1.8 | 1202.2 ± 1.8 | 1182.4 ± 1.8 | 1162.8 ± 1.8 | 1142.4 ± 1.7 | 1121.7 ± 1.7
x1 = 0.737 | 1237.3 ± 1.8 | 1216.6 ± 1.8 | 1197.5 ± 1.8 | 1177.4 ± 1.8 | 1157 ± 1.7 | 1136.3 ± 1.7 | 1115.2 ± 1.7
x1 = 0.8046 | 1233.9 ± 1.8 | 1212.9 ± 1.8 | 1193.4 ± 1.8 | 1172.8 ± 1.8 | 1151.6 ± 1.7 | 1130.6 ± 1.7 | 1109.1 ± 1.7
x1 = 0.8722 | 1231.2 ± 1.8 | 1209.8 ± 1.8 | 1189.8 ± 1.8 | 1168.7 ± 1.8 | 1146.7 ± 1.7 | 1125.4 ± 1.7 | 1103.5 ± 1.7
x1 = 0.9361 | 1229.1 ± 1.8 | 1207.4 ± 1.8 | 1186.7 ± 1.8 | 1165.4 ± 1.8 | 1142.6 ± 1.7 | 1121.2 ± 1.7 | 1099.4 ± 1.7
x1 = 1 | 1226.6 ± 1.8 | 1204.6 ± 1.8 | 1183.6 ± 1.8 | 1162.2 ± 1.7 | 1139.1 ± 1.7 | 1117.8 ± 1.7 | 1095.7 ± 1.7

— the NIST ThermoML archive (doi:10.1016/j.jct.2012.11.027)
